Measurements published in PubChem BioAssay (NCI).
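Here, GI50 denotes the concentration required for 50% inhibition of growth. Definition used: TGI = concentration required for complete inhibition of growth.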

Experiments:
Experiment in all cases: growth of human tumour cells (NCI), 384-well format
TK-10 renal = test system: TK-10 renal
UO-31 renal = test system: UO-31 renal
RXF 393 renal = test system: RXF 393 renal
CAKI-1 renal = test system: CAKI-1 renal
UACC-257 melanoma = test system: UACC-257 melanoma
SF-295 CNS = test system: SF-295 CNS
PC-3 prostate = test system: PC-3 prostate
A549 NSCLC = test system: A549 NSCLC
EKVX NSCLC = test system: EKVX NSCLC
HOP-92 NSCLC = test system: HOP-92 NSCLC
LOX IMVI melanoma = test system: LOX IMVI melanoma
CCRF-CEM leukemia = test system: CCRF-CEM leukemia
MALME-3M melanoma = test system: MALME-3M melanoma
NCI-H460 NSCLC = test system: NCI-H460 NSCLC
MDA-MB-468 breast = test system: MDA-MB-468 breast
OVCAR-4 ovarian = test system: OVCAR-4 ovarian
OVCAR-3 ovarian = test system: OVCAR-3 ovarian
SF-268 CNS = test system: SF-268 CNS
SNB-19 CNS = test system: SNB-19 CNS
K-562 leukemia = test system: K-562 leukemia
COLO 205 colon = test system: COLO 205 colon
A498 renal = test system: A498 renal
SF-539 CNS = test system: SF-539 CNS
SK-MEL-5 melanoma = test system: SK-MEL-5 melanoma
MCF7 breast = test system: MCF7 breast
MOLT-4 leukemia = test system: MOLT-4 leukemia
NCI/ADR-RES ovarian = test system: NCI/ADR-RES ovarian
IGROV1 ovarian = test system: IGROV1 ovarian
HCT-116 colon = test system: HCT-116 colon
SW-620 colon = test system: SW-620 colon
DU-145 prostate = test system: DU-145 prostate
SNB-75 CNS = test system: SNB-75 CNS
HT29 colon = test system: HT29 colon
HCT-15 colon = test system: HCT-15 colon
SN12C renal = test system: SN12C renal
NCI-H226 lung = test system: NCI-H226 lung
MDA-MB-231 breast = test system: MDA-MB-231 breast
U251 glioblastoma = test system: U251 glioblastoma
RPMI-8226 leukemia = test system: RPMI-8226 leukemia
ACHN renal = test system: ACHN renal
SK-OV-3 ovarian = test system: SK-OV-3 ovarian
HS 578T breast = test system: HS 578T breast
HOP-62 NSCLC = test system: HOP-62 NSCLC
UACC-62 melanoma = test system: UACC-62 melanoma
OVCAR-8 ovarian = test system: OVCAR-8 ovarian
HCC-2998 colon = test system: HCC-2998 colon
KM12 colon = test system: KM12 colon
786-0 renal = test system: 786-0 renal
OVCAR-5 ovarian = test system: OVCAR-5 ovarian
NCI-H23 lung = test system: NCI-H23 lung
SK-MEL-28 melanoma = test system: SK-MEL-28 melanoma
HL-60(TB) leukemia = test system: HL-60(TB) leukemia
NCI-H522 lung = test system: NCI-H522 lung
MDA-MB-435 melanoma = test system: MDA-MB-435 melanoma
BT-549 breast = test system: BT-549 breast
NCI-H322M lung = test system: NCI-H322M lung
M14 melanoma = test system: M14 melanoma

## COc1ccccc1N1CCN(C(=O)c2ccc(NS(=O)(=O)c3cccc4cccnc34)cc2)CC1
TK-10 renal
  GI50: > 100 µM
  TGI: > 100 µM
UO-31 renal
  GI50: > 100 µM
  TGI: > 100 µM
RXF 393 renal
  GI50: 18.2 µM
  TGI: 80.9 µM
CAKI-1 renal
  GI50: 74.5 µM
  TGI: > 100 µM
UACC-257 melanoma
  GI50: > 100 µM
  TGI: > 100 µM
SF-295 CNS
  GI50: > 100 µM
  TGI: > 100 µM
PC-3 prostate
  GI50: 56 µM
  TGI: > 100 µM
A549 NSCLC
  GI50: 18.5 µM
  TGI: > 100 µM
EKVX NSCLC
  GI50: 37.9 µM
  TGI: > 100 µM
HOP-92 NSCLC
  GI50: > 100 µM
  TGI: > 100 µM
LOX IMVI melanoma
  GI50: > 100 µM
  TGI: > 100 µM
CCRF-CEM leukemia
  GI50: 9.02 µM
  TGI: 23.6 µM
MALME-3M melanoma
  GI50: > 100 µM
  TGI: > 100 µM
NCI-H460 NSCLC
  GI50: 14.1 µM
  TGI: 31 µM
MDA-MB-468 breast
  GI50: 4.03 µM
  TGI: 17.6 µM
OVCAR-4 ovarian
  GI50: > 100 µM
  TGI: > 100 µM
OVCAR-3 ovarian
  GI50: 24.9 µM
  TGI: 81.4 µM
SF-268 CNS
  GI50: 13.7 µM
  TGI: 47.4 µM
SNB-19 CNS
  GI50: 52.1 µM
  TGI: > 100 µM
K-562 leukemia
  GI50: 10 µM
  TGI: 34.6 µM
COLO 205 colon
  GI50: 31.5 µM
  TGI: > 100 µM
A498 renal
  GI50: 71.9 µM
  TGI: > 100 µM
SF-539 CNS
  GI50: 32 µM
  TGI: > 100 µM
SK-MEL-5 melanoma
  GI50: 7.09 µM
  TGI: > 100 µM
MCF7 breast
  GI50: 24.5 µM
  TGI: > 100 µM
MOLT-4 leukemia
  GI50: 4.05 µM
  TGI: > 100 µM
NCI/ADR-RES ovarian
  GI50: > 100 µM
  TGI: > 100 µM
IGROV1 ovarian
  GI50: > 100 µM
  TGI: > 100 µM
HCT-116 colon
  GI50: 32.8 µM
  TGI: > 100 µM
SW-620 colon
  GI50: 44.8 µM
  TGI: > 100 µM
DU-145 prostate
  GI50: > 100 µM
  TGI: > 100 µM
SNB-75 CNS
  GI50: > 100 µM
  TGI: > 100 µM
HT29 colon
  GI50: > 100 µM
  TGI: > 100 µM
HCT-15 colon
  GI50: 28.9 µM
  TGI: > 100 µM
SN12C renal
  GI50: 61.3 µM
  TGI: > 100 µM
NCI-H226 lung
  GI50: 8.48 µM
  TGI: > 100 µM
MDA-MB-231 breast
  GI50: 63.5 µM
  TGI: > 100 µM
U251 glioblastoma
  GI50: 40.7 µM
  TGI: > 100 µM
RPMI-8226 leukemia
  GI50: 10.2 µM
  TGI: 23.6 µM
ACHN renal
  GI50: > 100 µM
  TGI: > 100 µM
SK-OV-3 ovarian
  GI50: 38.9 µM
  TGI: > 100 µM
HS 578T breast
  GI50: 25.9 µM
  TGI: > 100 µM
HOP-62 NSCLC
  GI50: 32.1 µM
  TGI: > 100 µM
UACC-62 melanoma
  GI50: 58.6 µM
  TGI: > 100 µM
OVCAR-8 ovarian
  GI50: 28.1 µM
  TGI: > 100 µM
HCC-2998 colon
  GI50: 12.7 µM
  TGI: 56.1 µM
KM12 colon
  GI50: > 100 µM
  TGI: > 100 µM
786-0 renal
  GI50: 40.8 µM
  TGI: > 100 µM
OVCAR-5 ovarian
  GI50: > 100 µM
  TGI: > 100 µM
NCI-H23 lung
  GI50: > 100 µM
  TGI: > 100 µM
SK-MEL-28 melanoma
  GI50: > 100 µM
  TGI: > 100 µM
HL-60(TB) leukemia
  GI50: 18.2 µM
  TGI: 33.3 µM
NCI-H522 lung
  GI50: 16.8 µM
  TGI: 34.2 µM
MDA-MB-435 melanoma
  GI50: 20.4 µM
  TGI: 42.9 µM
BT-549 breast
  GI50: 33 µM
  TGI: > 100 µM
NCI-H322M lung
  GI50: 53.4 µM
  TGI: > 100 µM
M14 melanoma
  GI50: 26.9 µM
  TGI: 84.9 µM
